pIC50: −log10 of the molar value.
Molecular target: Stimulator of interferon genes protein (Homo sapiens, UniProt Q86WV6)
Experiment: WT STING Binding Assay
Procedure: Upon proximity of the two dyes, the excitation of the donor by the flash lamp on the PHERAstar FSX plate reader triggers a Fluorescence Resonance Energy Transfer (FRET) towards the acceptor, which in turn fluoresces at 665 nm. To assess the ability of the synthetic small molecule STING ligands to bind to human STING, a competitive assay format was applied. A 10-point titration of each of the synthetic ligands in 5 uL were transferred into a 384 well plate, followed by 20 uL of assay buffer containing the 6×His-tagged human STING protein and labeled 2′3′cGAMP ligand and incubated for three hours at room temperature. The raw values obtained from the PHERAstar were used to calculate the reported IC50 values (the signal is inversely proportional to the binding of the synthetic ligand) through curve fitting in Genedata. The percent inhibition was calculated based upon the maximal amount of binding by synthetic compound versus the maximum binding of unlabeled 2′3′ cGAMP which was used as a control in each assay.

Stimulator of interferon genes protein, sequence (Q86WV6 whole entry): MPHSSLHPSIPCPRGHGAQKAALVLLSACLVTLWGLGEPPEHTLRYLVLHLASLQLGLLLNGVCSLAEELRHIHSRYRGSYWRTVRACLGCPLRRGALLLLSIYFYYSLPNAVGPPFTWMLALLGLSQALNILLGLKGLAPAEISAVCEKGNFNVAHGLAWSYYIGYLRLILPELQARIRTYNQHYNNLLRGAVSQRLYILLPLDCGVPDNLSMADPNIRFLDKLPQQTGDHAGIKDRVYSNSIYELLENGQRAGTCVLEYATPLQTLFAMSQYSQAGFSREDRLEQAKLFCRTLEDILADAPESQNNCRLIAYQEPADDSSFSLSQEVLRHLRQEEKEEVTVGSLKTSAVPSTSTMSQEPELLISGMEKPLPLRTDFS

Row | SMILES | pIC50
1 | O=C(Nc1cc(OCCc2cc(C(=O)O)c(NC(=O)c3ccc(-n4ccnc4)nn3)cc2Cl)c(F)cc1C(=O)O)c1ccc(-n2ccnc2)nn1 [US20230357253, Compound 166] | > 8.00
2 | O=C(Nc1cc(OCCCOc2cc(NC(=O)c3ccc(-n4ccnc4)nn3)c(C(=O)O)cc2F)c(F)cc1C(=O)O)c1ccc(-n2ccnc2)nn1 [US20230357253, Compound 168] | > 8.00
3 | O=C(Nc1cc(OCCc2c(F)cc(NC(=O)c3ccc(-n4ccnc4)nn3)c(C(=O)O)c2F)c(F)cc1C(=O)O)c1ccc(-n2ccnc2)nn1 [US20230357253, Compound 177] | > 8.00
4 | O=C(Nc1cc(CCc2cc(C(=O)O)c(NC(=O)c3ccc(-n4ccnc4)nn3)cc2F)c(F)cc1C(=O)O)c1ccc(-n2ccnc2)nn1 [US20230357253, Compound 180] | < 6.00
5 | N#Cc1cc(C(=O)O)c(NC(=O)c2ccc(-n3ccnc3)nn2)cc1CCCc1cc(NC(=O)c2ccc(-n3ccnc3)nn2)c(C(=O)O)cc1F [US20230357253, Compound 182] | > 8.00
6 | CC(Cc1cc(NC(=O)c2ccc(-n3ccnc3)nn2)c(C(=O)O)cc1F)Cc1cc(NC(=O)c2ccc(-n3ccnc3)nn2)c(C(=O)O)cc1F [US20230357253, Compound 194] | > 8.00
7 | C=C(Cc1cc(NC(=O)c2ccc(-n3ccnc3)nn2)c(C(=O)O)cc1F)Cc1cc(NC(=O)c2ccc(-n3ccnc3)nn2)c(C(=O)O)cc1F [US20230357253, Compound 199] | > 8.00
8 | O=C(Nc1cc(CC[S+]([O-])c2cc(NC(=O)c3ccc(-n4ccnc4)nn3)c(C(=O)O)cc2F)c(F)cc1C(=O)O)c1ccc(-n2ccnc2)nn1 (stereo not given) [US20230357253, Compound 200] | < 6.00
9 | O=C(Nc1cc(CCOc2cc(NC(=O)c3ccc(-n4ccnc4)nn3)c(C(=O)O)cc2F)c(F)cc1C(=O)O)c1ccc(-c2cn[nH]c2)nn1 [US20230357253, Compound 205] | > 8.00
10 | Cn1nccc1-c1ccc(C(=O)Nc2cc(CCCc3cc(NC(=O)c4ccc(-n5ccnc5)nn4)c(C(=O)O)cc3F)c(F)cc2C(=O)O)nn1 [US20230357253, Compound 207] | < 6.00
11 | O=C(Nc1cc(CCCc2cc(NC(=O)c3ccc(-n4ccnc4)nn3)c(C(=O)O)cc2F)c(F)cc1C(=O)O)c1ccc(N2CCOCC2)nn1 [US20230357253, Compound 212] | < 6.00
12 | O=C(Nc1cc(CCCc2cc(NC(=O)c3ccc(-n4ccnc4)nn3)c(C(=O)O)cc2F)c(F)cc1C(=O)O)c1ccc(N2CCNCC2)nn1 [US20230357253, Compound 214] | < 6.00

Second part, the molecule after the results:

Row | pIC50 | SMILES
13 | > 8.00 | O=C(Nc1cc(CCCc2cc(NC(=O)c3ccc(-n4ccnc4)nn3)c(C(=O)O)s2)c(F)cc1C(=O)O)c1ccc(-n2ccnc2)nn1 [US20230357253, Compound 164]
14 | > 8.00 | O=C(Nc1cc(OCCc2cc(C(=O)O)c(NC(=O)c3ccc4nnnn4n3)cc2F)c(F)cc1C(=O)O)c1ccc(-n2ccnc2)nn1 [US20230357253, Compound 169]
15 | > 8.00 | O=C(Nc1cc(CCCc2cc(NC(=O)c3ccc(-n4ccnc4)nn3)c(C(=O)O)cc2Cl)c(F)cc1C(=O)O)c1ccc(-n2ccnc2)nn1 [US20230357253, Compound 174]
16 | < 6.00 | O=C(Nc1cc(OCc2cc(C(=O)O)c(NC(=O)c3ccc(-n4ccnc4)nn3)cc2F)c(F)cc1C(=O)O)c1ccc(-n2ccnc2)nn1 [US20230357253, Compound 190]
17 | > 8.00 | O=C(Nc1cc(OCCOc2cc(C(=O)O)c(NC(=O)c3ccc(-n4ccnc4)nn3)cc2F)c(F)cc1C(=O)O)c1ccc(-n2ccnc2)nn1 [US20230357253, Compound 191]
18 | > 8.00 | O=C(Nc1cc(CCSc2cc(NC(=O)c3ccc(-n4ccnc4)nn3)c(C(=O)O)cc2F)c(F)cc1C(=O)O)c1ccc(-n2ccnc2)nn1 [US20230357253, Compound 195]
19 | > 8.00 | O=C(Nc1cc(OCCc2cc(C(=O)O)c(NC(=O)c3ccc(-c4cn[nH]c4)nn3)cc2F)c(F)cc1C(=O)O)c1ccc(-c2cn[nH]c2)nn1 [US20230357253, Compound 204]
20 | < 6.00 | Cn1nccc1-c1ccc(C(=O)Nc2cc(OCCCOc3cc(NC(=O)c4ccc(-c5ccnn5C)nn4)c(C(=O)O)cc3F)c(F)cc2C(=O)O)nn1 [US20230357253, Compound 206]
